Values quoted from earlier work as cited in patent US10525099B2, “Orally disintegrating solid pharmaceutical dosage unit containing a partus control substance” (Oxytone Bioscience B.V., priority 2014, dated 2020).
Bridge positions count the residues as written; N and C are the ends. Square brackets hold non-standard residues; d marks the D form. Peptide text beside a SMILES is read from it. Orn = NCCC[C@H](N)C(=O)O; Mpa = O=C(O)CCS

Columns and labels:
[1] = lyophilized
[2] = in vivo

| time stable at room temperature [1] [weeks] | half-life in the blood [2] | SMILES |
| --- | --- | --- |
| 3 |  | CCOc1ccc(C[C@H]2NC(=O)CCSSC[C@@H](C(=O)N3CCC[C@H]3C(=O)N[C@@H](CCCN)C(=O)NCC(N)=O)NC(=O)[C@H](CC(N)=O)NC(=O)[C@H]([C@@H](C)O)NC(=O)[C@H]([C@@H](C)CC)NC2=O)cc1 [atosiban] ([Mpa][dY](Et)ITNCP[Orn]G-NH2; disulfide 1-6) |
|  | about three | CC[C@H](C)[C@@H]1NC(=O)[C@H](Cc2ccc(O)cc2)NC(=O)[C@@H](N)CSSC[C@@H](C(=O)N2CCC[C@H]2C(=O)N[C@@H](CC(C)C)C(=O)NCC(N)=O)NC(=O)[C@H](CC(N)=O)NC(=O)[C@H](CCC(N)=O)NC1=O [Oxytocin, cysteine-tyrosine-isoleucine-glutamine-asparagine-cysteine-proline-leucine-glycine-amide] |
